Measurements from US10723741B1, “DNA polymerase IIIC inhibitors and use thereof” (Acurx Pharmaceuticals, LLC, priority 2018, dated 2020).
Values after ≈ are worked out from the molar mass of the structure shown. Where a name gives a salt, the structure may show the parent alone. Read-outs that look alike come from different tables or passages of the source.

Tests used:
Assay type in all cases: cell-based
[1] = test system: Staphylococcus aureus NRS384 (MRSA); experiment: Broth microdilution MIC, S. aureus NRS384 (MRSA); set-up: MIC NRS 384 (MRSA): unit not given here; settings: broth microdilution, 37° C., 20 hours; for MIC: Staphylococcus aureus
Summary of the method: (§1)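 Two-fold dilutions from 64 to 0.0625 μg/ml final, 1% DMSO, were inoculated at ~5.0×10^5 cfu/ml in the strain's test medium and kept 20 h at 37 °C in ambient atmosphere. Colonies were grown on MHA, with S. pneumoniae on blood agar under 5% CO2.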

[2] = test system: Escherichia coli ATCC 25922; experiment: Broth microdilution MIC, E. coli ATCC 25922 (MHIIB w & w/o 4 mM EDTA); settings: for MIC: Escherichia coli, read-out: MIC E. coli ATCC 25922; for MIC E. coli ATCC 25922 + 4 mM EDTA: with 4 mM EDTA
Summary of the method: as §1

[3] = test system: Enterococcus faecium ATCC 700221 (VRE); experiment: Broth microdilution MIC, E. faecium ATCC 700221 (VRE); set-up: MIC E. faecium ATCC 700221 (VRE): unit: ug/mL; settings: broth microdilution, 37° C., 20 hours; for MIC: Enterococcus faecium
Summary of the method: as §1

[4] = test system: Enterococcus faecalis ATCC 29212; experiment: Broth microdilution MIC, E. faecalis ATCC 29212; settings: read-out: MIC E. faecalis ATCC 29212
Summary of the method: as §1

[5] = test system: Bacillus subtilis ATCC 6633; experiment: Broth microdilution MIC, B. subtilis ATCC 6633; settings: read-out: MIC B. subtilis ATCC 6633
Summary of the method: as §1

[6] = test system: Staphylococcus aureus ATCC 29213 (MSSA); experiment: Broth microdilution MIC, S. aureus ATCC 29213 (MSSA); settings: read-out: MIC S. aureus ATCC 29213 (MSSA)
Summary of the method: as §1

[7] = test system: Streptococcus pneumoniae ATCC 49619; experiment: Broth microdilution MIC, S. pneumoniae ATCC 49619; settings: read-out: MIC S. pneumoniae ATCC 49619
Summary of the method: as §1

[8] = S. aureus NRS 384, read-out: MIC NRS 384 (MRSA)
[9] = ATCC25922, without EDTA, broth microdilution, 37° C., 20 hours
[10] = broth microdilution, 37° C., 20 hours
[11] = read-out: MIC E. faecium ATCC 700221 (VRE)
[12] = ATCC29212, broth microdilution, 37° C., 20 hours
[13] = ATCC6633, broth microdilution, 37° C., 20 hours
[14] = ATCC49619, broth microdilution, 37° C., 20 hours

| SMILES | MIC [1, 8] | MIC ([1]; MHIIB, read-out: MIC against S. aureus NRS 384 (MRSA)) | MIC [2, 9] | MIC E. coli ATCC 25922 + 4 mM EDTA [2, 10] | MIC [3, 11] | MIC ([3]; MHIIB, read-out: MIC against E. faecium ATCC 700221 (VRE)) | MIC [4, 12] | MIC [5, 13] | MIC [6, 10] | MIC [7, 14] | MIC ([1]; read-out: MIC NRS 384 (MRSA)) | MIC NRS 384 (MRSA) [1] | MIC ([2]; ATCC25922, 20 h) | MIC E. faecium ATCC 700221 (VRE) [3] | MIC ([4]; ATCC29212, 20 h) | MIC ([5]; ATCC6633, 20 h) | MIC ([6]; 20 h) | MIC ([7]; ATCC49619, 20 h) |
| --- | --- | --- | --- | --- | --- | --- | --- | --- | --- | --- | --- | --- | --- | --- | --- | --- | --- | --- |
| O=c1[nH]c(NCc2ccc(Cl)c(Cl)c2)nc2c(Cl)nn(Cc3cocn3)c12 [Compound 307, 3-Chloro-5-((3,4-dichlorobenzyl)amino)-1-(oxazol-4-ylmethyl)-1H-pyrazolo[4,3-d]pyrimidin-7(6H)-one] | 1 µg/mL (≈ 2.35 µM) | ≤ 1 µg/mL | > 64 µg/mL | >64 µg/mL | 1 µg/mL (≈ 2.35 µM) | ≤ 1 µg/mL | 2 µg/mL (≈ 4.7 µM) | 0.5 µg/mL (≈ 1.17 µM) | 1 µg/mL (≈ 2.35 µM) | 4 µg/mL (≈ 9.4 µM) | – | – | – | – | – | – | – | – |
| CCOC(=O)CCCn1ncc2nc(NCc3ccc(Cl)c(Cl)c3)[nH]c(=O)c21 [Compound 205, ethyl 4-(5-((3,4-dichlorobenzyl)amino)-7-oxo-6,7-dihydro-1H-pyrazolo[4,3-d]pyrimidin-1-yl)butanoate] | – | – | > 64 µg/mL | >64 µg/mL | 2 µg/mL (≈ 4.71 µM) | – | 4 µg/mL (≈ 9.43 µM) | 1 µg/mL (≈ 2.36 µM) | 4 µg/mL (≈ 9.43 µM) | 8 µg/mL (≈ 18.9 µM) | 2 µg/mL (≈ 4.71 µM) | – | – | – | – | – | – | – |
| COC(=O)CCn1ncc2nc(NCc3ccc(Cl)c(Cl)c3)[nH]c(=O)c21 [Compound 231, Methyl 3-(5-((3,4-dichlorobenzyl)amino)-7-oxo-6,7-dihydro-1H-pyrazolo[4,3-d]pyrimidin-1-yl)propanoate] | – | – | > 64 µg/mL | >64 µg/mL | 2 µg/mL (≈ 5.05 µM) | – | 4 µg/mL (≈ 10.1 µM) | 1 µg/mL (≈ 2.52 µM) | 4 µg/mL (≈ 10.1 µM) | 4 µg/mL (≈ 10.1 µM) | 2 µg/mL (≈ 5.05 µM) | – | – | – | – | – | – | – |
| Cl.NC(=O)C1CCN(CCn2ncc3nc(NCc4ccc(Cl)c(Cl)c4)[nH]c(=O)c32)CC1 [Compound 66, 1-(2-(5-((3,4-Dichlorobenzyl)amino)-7-oxo-6,7-dihydro-1H-pyrazolo[4,3-d]pyrimidin-1-yl)ethyl)piperidine-4-carboxamide hydrochloride hydrochloride] | – | – | > 64 µg/mL | 64 µg/mL | 16 µg/mL | – | 32 µg/mL | 8 µg/mL | 64 µg/mL | 8 µg/mL | 32 µg/mL | – | – | – | – | – | – | – |
| CCc1[nH]c(CNc2nc3cnn(C)c3c(=O)[nH]2)nc1Cl.Cl [Compound 38, 5-(((4-Chloro-5-ethyl-1H-imidazol-2-yl)methyl)amino)-1-methyl-1H-pyrazolo[4,3-d]pyrimidin-7(6H)-one hydrochloride] | – | – | > 64 µg/mL | >64 µg/mL | > 64 µg/mL | – | > 64 µg/mL | > 64 µg/mL | > 64 µg/mL | > 64 µg/mL | > 64 µg/mL | – | – | – | – | – | – | – |
| O=c1[nH]c(NCc2ccc(Cl)c(Cl)c2)nc2cnn(C3CCN(c4ccncc4)CC3)c12 [Compound 162, 5-((3,4-dichlorobenzyl)amino)-1-(1-(pyridin-4-yl)piperidin-4-yl)-1H-pyrazolo[4,3-d]pyrimidin-7(6H)-one dihydrochloride] | – | – | – | 8 µg/mL | – | – | – | – | – | – | – | 2/4 | > 64 µg/mL | 2/2 | 4 µg/mL | 1 µg/mL | 4 µg/mL | 2 µg/mL |
| NCCn1ncc2nc(NCc3ccc(Cl)c(Cl)c3)[nH]c(=O)c21 [Compound 63, 1-(2-Aminoethyl)-5-[(3,4-dichlorophenyl)methylamino]-6H-pyrazolo[4,3-d]pyrimidin-7-one] | – | – | > 64 µg/mL | >64 µg/mL | 32 µg/mL (≈ 90.6 µM) | – | 32 µg/mL (≈ 90.6 µM) | 8 µg/mL (≈ 22.6 µM) | 64 µg/mL (≈ 181 µM) | 8 µg/mL (≈ 22.6 µM) | 64 µg/mL (≈ 181 µM) | – | – | – | – | – | – | – |
| O=c1[nH]c(NCc2ccc(Cl)c(Cl)c2)nc2cnn(CC3CCCO3)c12 (stereo not drawn) [Compound 102, 5-((3,4-Dichlorobenzyl)amino)-1-((tetrahydrofuran-2-yl)methyl)-1H-pyrazolo[4,3-d]pyrimidin-7(6H)-one] | – | – | > 64 µg/mL | >64 µg/mL | – | – | 4 µg/mL (≈ 10.1 µM) | 1 µg/mL (≈ 2.54 µM) | 4 µg/mL (≈ 10.1 µM) | 4 µg/mL (≈ 10.1 µM) | – | 4/4 | – | 2/4 | – | – | – | – |
| O=C(c1cocn1)N1CCC(n2ncc3nc(NCc4ccc(Cl)c(Cl)c4)[nH]c(=O)c32)CC1 [Compound 253, 5-[(3,4-Dichlorophenyl)methylamino]-1-[1-(oxazole-4-carbonyl)-4-piperidyl]-6H-pyrazolo[4,3-d]pyrimidin-7-one] | – | – | > 64 µg/mL | >64 µg/mL | 2 µg/mL (≈ 4.1 µM) | – | 4 µg/mL (≈ 8.19 µM) | 1 µg/mL (≈ 2.05 µM) | 2 µg/mL (≈ 4.1 µM) | 2 µg/mL (≈ 4.1 µM) | 2 µg/mL (≈ 4.1 µM) | – | – | – | – | – | – | – |
| O=c1[nH]c(NCc2ccc(Cl)c(Cl)c2)nc2cnn(CC(O)CN3CCOCC3)c12 (stereo not drawn) [Compound 289, 5-[(3,4-dichlorophenyl)methylamino]-1-(2-hydroxy-3-morpholino-propyl)-6H-pyrazolo[4,3-d]pyrimidin-7-one] | – | – | > 64 µg/mL | >64 µg/mL | 8 µg/mL (≈ 17.6 µM) | – | 16 µg/mL (≈ 35.3 µM) | 8 µg/mL (≈ 17.6 µM) | 32 µg/mL (≈ 70.6 µM) | 8 µg/mL (≈ 17.6 µM) | 32 µg/mL (≈ 70.6 µM) | – | – | – | – | – | – | – |
| O=c1[nH]c(NCc2ccc(Cl)c(Cl)c2)nc2cnn(Cc3ccccc3)c12 [Compound 127, 1-Benzyl-5-((3,4-dichlorobenzyl)amino)-1H-pyrazolo[4,3-d]pyrimidin-7(6H)-one] | – | – | > 64 µg/mL | >64 µg/mL | 32 µg/mL (≈ 79.9 µM) | – | > 64 µg/mL | 1 µg/mL (≈ 2.5 µM) | > 64 µg/mL | > 64 µg/mL | > 64 µg/mL | – | – | – | – | – | – | – |
| O=c1[nH]c(NCc2ccc(F)c(F)c2)nc2c(F)nn(Cc3cocn3)c12 [Compound 316, 5-((3,4-Difluorobenzyl)amino)-3-fluoro-1-(oxazol-4-ylmethyl)-1H-pyrazolo[4,3-d]pyrimidin-7(6H)-one] | 2 µg/mL (≈ 5.31 µM) | – | > 64 µg/mL | >64 µg/mL | 4 µg/mL (≈ 10.6 µM) | – | 8 µg/mL (≈ 21.3 µM) | 2 µg/mL (≈ 5.31 µM) | 4 µg/mL (≈ 10.6 µM) | 2 µg/mL (≈ 5.31 µM) | – | – | – | – | – | – | – | – |
| COC/C=C/Cn1ncc2nc(NCc3ccc(Cl)c(Cl)c3)[nH]c(=O)c21 [Compound 192, (E)-5-((3,4-dichlorobenzyl)amino)-1-(4-methoxybut-2-en-1-yl)-1H-pyrazolo[4,3-d]pyrimidin-7(6H)-one] | – | – | > 64 µg/mL | >64 µg/mL | 2 µg/mL (≈ 5.07 µM) | – | 4 µg/mL (≈ 10.1 µM) | 1 µg/mL (≈ 2.54 µM) | 2 µg/mL (≈ 5.07 µM) | 4 µg/mL (≈ 10.1 µM) | 2 µg/mL (≈ 5.07 µM) | – | – | – | – | – | – | – |
| CCOC(=O)CCCCn1ncc2nc(NCc3ccc(Cl)c(Cl)c3)[nH]c(=O)c21 [Compound 203, ethyl 5-(5-((3,4-dichlorobenzyl)amino)-7-oxo-6,7-dihydro-1H-pyrazolo[4,3-d]pyrimidin-1-yl)pentanoate] | – | – | > 64 µg/mL | >64 µg/mL | 2 µg/mL (≈ 4.56 µM) | – | > 64 µg/mL | 0.5 µg/mL (≈ 1.14 µM) | 2 µg/mL (≈ 4.56 µM) | 8 µg/mL (≈ 18.3 µM) | 2 µg/mL (≈ 4.56 µM) | – | – | – | – | – | – | – |
